Data on two molecules can be found in publication PMC6105673 (Nature Communications, 2018).

The target of experiment [1] is T1, pVHL-elongin B-elongin C (VBC) complex (Homo sapiens, UniProt P40337+Q15369+Q15370).
T1 construct: a construct encoding N-terminal GST-tagged pVHL19 (54–213); GST (N, cleaved yes); made in house; host or cells: BL21(DE3) E. coli
Briefly: Biolayer interferometry kinetic analysis of VBC complex binding to biotinylated HIF-2α peptides. Conditions: BLItz biolayer interferometry, peptide (523–541) immobilized, purified VBC, global 1:1 model; mean of three experiments ± SEM. As to the method:
Absorbance was read at 450 nm. […] The data were analyzed based on a 1:1 binding model using the BLItz Pro software with the fitted curves shown as gray lines. […] Values represent mean of three experiments conducted with independently purified protein ± SEM. * denotes uncharacterized band
Multiple concentrations of purified VBC complex were diluted in kinetics buffer and allowed to associate with immobilized peptide over 120 s. Subsequently, the SA-BLI probe was immersed into kinetics buffer for 120 s to allow for dissociation. The data were analyzed, step corrected, reference corrected, and fit to a global 1:1 binding model. Kd, ka, and kd were calculated using the BLItz Pro software.
On the technique in general: BLI is a label-free optical method that tracks binding on a fibre tip over time.

Experiment [2] has as its target T1, pVHL-elongin B-elongin C (VBC) complex. Briefly: Steady-state ELISA of VBC complex binding to immobilized biotinylated HIF-2α peptides. The conditions noted are these: peptides (523–541) on streptavidin plate; VBC 1, 5 and 25 μg/mL; anti-elongin B antibody; three independent experiments in duplicate. As to the method: Fig. 4 Affinity of HIF-2α mutants for pVHL is correlated with disease phenotype. a Biotinylated HIF-2α peptides (523–541) were immobilized on a streptavidin-coated 96-well plate. Binding to various concentrations of pVHL-elongin B-elongin C (VBC) complex was assayed via ELISA with an anti-eloB antibody. Absorbance was read at 450 nm. Values represent mean of three independent experiments performed in duplicate ± SEM. *p < 0.05; **p < 0.01. b Biotinylated HIF-2αOH peptides (523–541) were immobilized on streptavidin- agarose beads and incubated with in vitro transcribed and translated (IVTT) pVHL. Streptavidin beads were pulled down (PD) and levels of HA-tagged pVHL were visualized via immmunoblotting (IB). c, d Biolayer interferometry kinetic analysis of VBC complex binding to biotinylated HIF-2α peptides (523–541). c Biotinylated peptides were coupled to streptavidin- coated biosensors and monitored for binding to VBC complex at the indicated concentrations. The data were analyzed based on a 1:1 binding model using the BLItz Pro software with the fitted curves shown as gray lines. […]
A 96-well streptavidin-coated plate (Quidel) was hydrated with ~200 μL of buffer A per well. […] Following the final wash step, the plates were developed according to manufacturer’s recommendations with ready-to-use TMB1 reagent (Thermo-fisher, Cat. No. 34028) for 20 min before being quenched with 2 N H2SO4. […]

The test system of experiment [3] is HIS6-PHD2 (181–426). Briefly: In vitro hydroxylation assay (HIS6-PHD2 treatment, then IVTT pVHL pull-down). The format is biochemical. The conditions noted are these: unmodified biotinylated peptides, 15 μg/mL HIS6-PHD2 (181–426), 1 h room temperature, then IVTT HA-VHL30 under stringent buffer. As to the method: Considering that prolyl hydroxylation is indispensable for HIF-2α binding to pVHL, we next examined the notion that the A530V mutation negatively influences hydroxylation of HIF-2α via PHD2, which would attenuate HIF-2α A530V binding affinity for pVHL. We conducted an in vitro hydroxylation assay utilizing unmodified peptides (amino acids 523–542) incubated with purified HIS6-PHD2 (catalytic core, amino acids 181–426).
Fig. 5 A subset of class 1 mutations specifically disrupts PHD2-mediated hydroxylation. a, b Biotinylated HIF-2α peptides (residues 523–542) were immobilized on streptavidin- agarose beads and incubated with HIS6-PHD2 for 1 h at room temperature prior to incubation with in vitro transcribed and translated (IVTT) pVHL. Streptavidin beads were pulled down (PD) and levels of HA-tagged pVHL were visualized via immmunoblotting (IB). c HEK293a cells were co-transfected with FLAG-VHL and HA-HIF-2α constructs. FLAG was immunoprecipitated (IP) and levels of HA-tagged HIF-2α were visualized via immunoblotting (IB). * denotes uncharacterized band
The in vitro pVHL-HIF-2α hydroxylation assay was performed according to a previously published protocol. 5 μg of biotinylated HIF-2α peptide was immobilized on streptavidin-agarose beads. Subsequently, peptides were incubated with 15 μg/mL HIS6-PHD2 (181–426) in 500 μL of 40 mM HEPES pH 7.4, 80 mM KCl, 5 mM a-ketoglutarate, 2 mM ascorbic acid, 100 μM FeCl2 tetrahydrate solution at room temperature for 1 h. FeCl2 was stored under anoxic conditions to prevent oxidation. Following hydroxylation, beads were washed 5x with EBC buffer and peptides were incubated with IVTT HA-VHL30 under the stringent buffer conditions described above.

In experiment [4] the test system is HIS6-PHD2 (181–426). As to the kind of experiment: Steady-state pull-down of purified HIS6-PHD2 with biotinylated HIF-2α peptides. The format is binding. An excerpt: To first test this hypothesis, we performed steady-state pull-down experiments with HIF-2α peptides (523–542) and purified HIS6-PHD2 (181–426). To stabilize the interaction between enzyme and substrate, it was necessary to include MnCl2 and N-oxalylglycine (NOG) in the binding buffer. Mn^2+ and NOG substitute for Fe^2+ and αKG, respectively, which stabilizes the HIF-2α-PHD2 interaction while preventing enzymatic turnover. A similar strategy was employed during co-crystallization of HIF-1α peptide with PHD2[43]. We observed that […] tested HIF-2α mutations result in decreased affinity for PHD2 (Supplementary Figure 6a). […] Next, we co-transfected HEK293a cells with 3xFLAG-HIF-2α ODD and HA-PHD2 constructs. […] The increased binding of the M535I mutant to PHD2 was not observed in this experiment. One important caveat is that the HIF-2α ODD constructs contain both the P405 and P531 sites. Thus, the residual PHD2 binding observed among HIF-2α mutants may partially be driven by the P405 site, which may mask differential PHD2 binding among the HIF-2α mutant ODD constructs.
5 μg of biotinylated HIF-2α peptide (WT or mutant) was immobilized on streptavidin agarose beads and incubated with a […] solution of purified HIS6-PHD2 (181–426) in 50 mM Tris-HCl pH 7.5, 0.005% (v/v) Tween-20 buffer supplemented with or without 1 mM MnCl2 and 1 mM NOG, for 2 h at 4 °C. Beads were washed 2x with the same buffer. Biotinylated peptide was pulled down via streptavidin agarose beads and protein was eluted by boiling beads in sample buffer. Protein levels of HIS6-PHD2 were determined by western blotting. Uncropped western blots are provided in Supplementary Figure 8.
Supplementary Figure 6. HIF-2α mutations disrupt PHD2 binding. (A) Biotinylated HIF-2α peptides (523-542, except where noted) were immobilized on streptavidin- agarose beads and incubated with purified HIS6-PHD2 (181-426) in the presence or absence of 1 mM MnCl2 and 1 mM N-oxalylglycine (NOG).
Streptavidin beads were pulled down (PD) and levels of HIS6-tagged PHD2 were visualized via immmunoblotting (IB). […]

The subject of the next experiment is HIS6-PHD2(181-426). As to the kind of experiment: Biolayer interferometry of HIS6-PHD2 binding to biotinylated HIF-2α peptides (523-542). Conditions: BLI, 1 mM MnCl2 and 1 mM N-oxalylglycine, from mM to μM, accurate constants not possible (PHD2 aggregation). An excerpt:
2. The authors concluded that some of class 1 mutation affects PHD2-mediated hydroxylation of HIF-2α (Fig. 4). I think it is better to examine the interaction between HIF -2α mutants and PHD2 utilizing IP-Western and BLI. Also, negative controls (non-hydroxylated HIF-2α peptide without PHD2 treatment) should be included in Fig. 4A and 4B.
RE S PO N S E : Done. We performed binding assays with recombinant PHD2 to test the reviewer’s […]
major technical hurdle with performing binding assay with enzymes is overcoming the inherently transient nature of the interaction.
In an effort to stabilize the interaction between HIF-2α peptide and PHD2, we incorporated a technique that was used during co-crystallization of HIF-1α peptide with PHD2 (Chowdhury et al., 2009). As PHD2 normally forms a stable complex with co-factors Fe2+ and α-ketoglutarate (αK G), we formed a complex of PHD2 with Mn2+ and N-oxalylglycine (NOG), which mimic iron and αK G, […]
During BLI experiments, the addition of […]
Figure X. Biolayer interferometry studies of HIF-2α peptide binding to PHD2. […] Biotinylated peptides were coupled to streptavidin- coated biosensors and monitored for binding to PHD2 at the indicated concentrations in the presence or absence of 1 mM MnCl2 and 1 mM N-oxalylglycine. The data were analyzed based on a 1:1 binding model using the BLItz Pro software with the fitted curves shown as gray lines. […]

T1 sequence (P40337 54-213): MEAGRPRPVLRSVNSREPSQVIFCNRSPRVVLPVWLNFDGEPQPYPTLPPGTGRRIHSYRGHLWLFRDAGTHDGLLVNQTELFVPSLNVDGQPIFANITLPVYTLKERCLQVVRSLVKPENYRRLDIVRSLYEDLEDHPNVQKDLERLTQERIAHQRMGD
T1 sequence (Q15370 whole entry partner): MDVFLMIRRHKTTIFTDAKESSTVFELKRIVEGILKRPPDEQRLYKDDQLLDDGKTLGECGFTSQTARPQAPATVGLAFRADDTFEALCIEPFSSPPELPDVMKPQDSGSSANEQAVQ
T1 sequence (Q15369 17-112 partner limits assumed): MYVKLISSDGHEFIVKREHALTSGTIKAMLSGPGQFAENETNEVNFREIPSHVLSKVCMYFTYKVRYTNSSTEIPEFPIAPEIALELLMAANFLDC

On to `CC[C@H](C)[C@H](NC(=O)[C@H](Cc1ccc(O)cc1)NC(=O)[C@@H]1C[C@@H](O)CN1C(=O)[C@H](C)NC(=O)[C@@H]1CCCN1C(=O)[C@@H](NC(=O)[C@H](CCC(=O)O)NC(=O)[C@H](CC(C)C)NC(=O)[C@H](CC(=O)O)NC(=O)[C@H](CC(C)C)NC(=O)[C@H](CCC(=O)O)NC(=O)CCCC[C@@H]1SC[C@@H]2NC(=O)N[C@@H]21)[C@@H](C)O)C(=O)N1CCC[C@H]1C(=O)N[C@@H](CCSC)C(=O)N[C@@H](CC(=O)O)C(=O)NCC(=O)N[C@@H](CCC(=O)O)C(=O)N[C@@H](CC(=O)O)C(=O)N[C@@H](Cc1ccccc1)C(=O)N[C@@H](CCC(N)=O)C(N)=O` [HIF-2αOH (L529P)], for which the “ka (association rate)” value in experiment [1] is reported as 4.0 ± 0.4 x10^4 Ms^−1. The “binding to VBC by ELISA (absorbance at 450 nm, in words)” value in experiment [2] was “does not have a statistically significant effect”.
On to “ELDLETLA[Hyp/P]YIPMDGEDFQL [Bio-HIF-2α(523-542;WT)]”, for which the “binding to pVHL following HIS6-PHD2 treatment (immunoblot, in words)” value in the experiment with HIS6-PHD2 (181–426) [3] was “bound robustly”. Also, the “pull-down of recombinant PHD2 (in words)” value with HIS6-PHD2 (181–426) [4] (earlier experiments, without Mn2+/NOG stabilization) is listed as “failed to pull -down recombinant PHD2 protein”. Besides, the “affinity for PHD2 in steady-state pull-down (immunoblot, in words)” value in the experiment with HIS6-PHD2 (181–426) [4] (peptides (523–542), purified HIS6-PHD2 (181–426), with 1 mM MnCl2 and 1 mM NOG, 2 h at 4 °C) was “observed binding”. In the experiment with HIS6-PHD2(181-426), the “decrease of Kd for PHD2 on addition of Mn2+ and NOG” value is recorded as “roughly 1000 fold”.
